Values joined by “and” are separate entries in the source; they are usually repeats but may differ in a detail not shown here. Equal values may be shown once.
Legend:
[1] = molecular target: Target kinase isoforms (PI3K, mTOR, RAF, MEK) (Homo sapiens, UniProt P48736); test: Target kinase isoforms 10-point IC50 determination (Supplementary Fig. 7); assay type: biochemical; conditions: PI3K gamma
Description: (§1) The average percent kinase inhibition from replicate data was ranked low to high, converted to a compatible identifier format, then input into Coral Human Kinome Visualization software for presentation analysis. […] Scaling of evolutionary distance for PI kinases is only relative and is based on literature analysis[62],[63]. Average percent kinome inhibition values from replicate data are supplied in Source Data file. […] Corrected data was normalized to vehicle treated control values, and dose response percent kinase activity was analyzed by non-linear regression for determination of IC50 values.

[2] = molecular target: Target kinase isoforms (PI3K, mTOR, RAF, MEK) (Homo sapiens, UniProt P42336); test: as above; assay type: biochemical; conditions: PI3K alpha
Description: as §1

[3] = molecular target: Target kinase isoforms (PI3K, mTOR, RAF, MEK) (Homo sapiens, UniProt P42345); test: as above; assay type: biochemical; conditions: mTOR
Description: as §1

[4] = molecular target: Target kinase isoforms (PI3K, mTOR, RAF, MEK) (Homo sapiens, UniProt P42338); test: as above; assay type: biochemical; conditions: PI3K beta
Description: as §1

[5] = Pharmacokinetic analysis of plasma after intravenous and oral dosing; conditions: plasma, mice, analyte = label, individual animals
Description: Samples were centrifuged at 15,000 rpm for 10 min, then blood plasma was collected from the upper layer and frozen at −80 °C until analysis. […] Sample processing, chromatographic separation, MS, and MS/MS parameters used for analysis were determined by the core. […] Standard curves for peak area ratio of compound to internal standard (Astd/AIstd) vs. compound concentration were used to determine sample analyte concentrations through linear regression with a weighting average of 1/X^2. […] All pharmacokinetic parameters were estimated using non-compartmental analysis with Phoenix/WINONLIN, and provided by the core along with calculated sample analyte concentrations. Data was generated from n ≥ 3 individual animals sampled per time point per compound for each method of dosing.

[6] = concentration 0.495 nM, 0.000495 µM
[7] = concentration 1.52 nM, 0.00152 µM
[8] = concentration 4.57 nM, 0.00457 µM

Target kinase isoforms (PI3K, mTOR, RAF, MEK) (Homo sapiens, UniProt P48736), sequence (P48736 whole entry, canonical isoform): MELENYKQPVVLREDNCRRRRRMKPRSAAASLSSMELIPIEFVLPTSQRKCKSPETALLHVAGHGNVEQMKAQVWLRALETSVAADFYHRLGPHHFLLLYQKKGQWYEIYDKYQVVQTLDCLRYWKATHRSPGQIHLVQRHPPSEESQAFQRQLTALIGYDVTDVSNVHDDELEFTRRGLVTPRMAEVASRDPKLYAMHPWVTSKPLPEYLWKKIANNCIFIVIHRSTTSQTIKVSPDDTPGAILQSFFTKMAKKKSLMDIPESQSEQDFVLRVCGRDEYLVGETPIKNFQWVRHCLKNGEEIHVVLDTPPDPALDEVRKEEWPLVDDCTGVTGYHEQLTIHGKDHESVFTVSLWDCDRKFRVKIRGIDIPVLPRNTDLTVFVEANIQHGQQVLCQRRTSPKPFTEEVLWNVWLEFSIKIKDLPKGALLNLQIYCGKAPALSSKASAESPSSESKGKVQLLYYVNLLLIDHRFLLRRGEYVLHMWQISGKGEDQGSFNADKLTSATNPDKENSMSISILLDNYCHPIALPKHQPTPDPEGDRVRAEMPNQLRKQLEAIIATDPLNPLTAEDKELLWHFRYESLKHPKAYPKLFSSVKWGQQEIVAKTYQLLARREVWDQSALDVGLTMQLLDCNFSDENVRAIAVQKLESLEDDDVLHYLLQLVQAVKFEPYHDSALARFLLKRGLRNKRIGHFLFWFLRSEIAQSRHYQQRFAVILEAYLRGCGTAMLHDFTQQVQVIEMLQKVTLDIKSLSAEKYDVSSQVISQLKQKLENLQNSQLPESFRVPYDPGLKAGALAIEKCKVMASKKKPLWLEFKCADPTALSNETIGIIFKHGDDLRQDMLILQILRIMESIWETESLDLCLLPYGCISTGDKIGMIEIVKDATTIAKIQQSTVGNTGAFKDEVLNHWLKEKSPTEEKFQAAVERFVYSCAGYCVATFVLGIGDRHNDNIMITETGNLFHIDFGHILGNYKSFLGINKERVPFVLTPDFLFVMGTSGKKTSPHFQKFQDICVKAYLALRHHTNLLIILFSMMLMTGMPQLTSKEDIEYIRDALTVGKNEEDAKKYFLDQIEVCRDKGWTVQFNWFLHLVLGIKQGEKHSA
Target kinase isoforms (PI3K, mTOR, RAF, MEK) (Homo sapiens, UniProt P42336), sequence (P42336 whole entry, canonical isoform): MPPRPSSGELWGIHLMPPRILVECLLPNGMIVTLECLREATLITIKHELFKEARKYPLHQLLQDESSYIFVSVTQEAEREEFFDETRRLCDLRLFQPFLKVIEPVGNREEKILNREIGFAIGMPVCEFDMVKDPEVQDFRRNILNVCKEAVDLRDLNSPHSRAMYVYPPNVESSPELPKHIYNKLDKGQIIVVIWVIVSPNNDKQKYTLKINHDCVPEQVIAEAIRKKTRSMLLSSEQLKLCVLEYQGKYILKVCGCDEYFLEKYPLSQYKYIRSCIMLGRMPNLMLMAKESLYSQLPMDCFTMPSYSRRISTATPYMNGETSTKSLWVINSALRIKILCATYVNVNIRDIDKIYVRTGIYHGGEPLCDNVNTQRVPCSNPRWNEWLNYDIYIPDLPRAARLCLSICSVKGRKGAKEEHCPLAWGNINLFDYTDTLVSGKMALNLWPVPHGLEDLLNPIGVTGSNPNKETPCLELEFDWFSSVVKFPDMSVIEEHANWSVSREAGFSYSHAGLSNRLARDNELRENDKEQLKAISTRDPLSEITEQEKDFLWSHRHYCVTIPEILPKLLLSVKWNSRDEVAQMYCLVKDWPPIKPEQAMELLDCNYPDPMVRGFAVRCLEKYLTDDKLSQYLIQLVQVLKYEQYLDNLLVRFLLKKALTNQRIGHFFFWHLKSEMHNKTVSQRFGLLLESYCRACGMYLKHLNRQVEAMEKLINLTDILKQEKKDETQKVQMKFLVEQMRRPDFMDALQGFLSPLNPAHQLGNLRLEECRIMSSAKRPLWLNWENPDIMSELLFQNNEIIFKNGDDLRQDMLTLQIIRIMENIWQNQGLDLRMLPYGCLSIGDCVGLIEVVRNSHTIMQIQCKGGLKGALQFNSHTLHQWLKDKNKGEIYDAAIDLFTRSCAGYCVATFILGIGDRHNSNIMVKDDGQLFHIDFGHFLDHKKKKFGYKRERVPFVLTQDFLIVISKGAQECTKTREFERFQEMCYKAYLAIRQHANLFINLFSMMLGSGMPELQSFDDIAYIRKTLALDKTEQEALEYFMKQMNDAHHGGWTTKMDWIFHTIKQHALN
Target kinase isoforms (PI3K, mTOR, RAF, MEK) (Homo sapiens, UniProt P42338), sequence (P42338 whole entry, canonical isoform): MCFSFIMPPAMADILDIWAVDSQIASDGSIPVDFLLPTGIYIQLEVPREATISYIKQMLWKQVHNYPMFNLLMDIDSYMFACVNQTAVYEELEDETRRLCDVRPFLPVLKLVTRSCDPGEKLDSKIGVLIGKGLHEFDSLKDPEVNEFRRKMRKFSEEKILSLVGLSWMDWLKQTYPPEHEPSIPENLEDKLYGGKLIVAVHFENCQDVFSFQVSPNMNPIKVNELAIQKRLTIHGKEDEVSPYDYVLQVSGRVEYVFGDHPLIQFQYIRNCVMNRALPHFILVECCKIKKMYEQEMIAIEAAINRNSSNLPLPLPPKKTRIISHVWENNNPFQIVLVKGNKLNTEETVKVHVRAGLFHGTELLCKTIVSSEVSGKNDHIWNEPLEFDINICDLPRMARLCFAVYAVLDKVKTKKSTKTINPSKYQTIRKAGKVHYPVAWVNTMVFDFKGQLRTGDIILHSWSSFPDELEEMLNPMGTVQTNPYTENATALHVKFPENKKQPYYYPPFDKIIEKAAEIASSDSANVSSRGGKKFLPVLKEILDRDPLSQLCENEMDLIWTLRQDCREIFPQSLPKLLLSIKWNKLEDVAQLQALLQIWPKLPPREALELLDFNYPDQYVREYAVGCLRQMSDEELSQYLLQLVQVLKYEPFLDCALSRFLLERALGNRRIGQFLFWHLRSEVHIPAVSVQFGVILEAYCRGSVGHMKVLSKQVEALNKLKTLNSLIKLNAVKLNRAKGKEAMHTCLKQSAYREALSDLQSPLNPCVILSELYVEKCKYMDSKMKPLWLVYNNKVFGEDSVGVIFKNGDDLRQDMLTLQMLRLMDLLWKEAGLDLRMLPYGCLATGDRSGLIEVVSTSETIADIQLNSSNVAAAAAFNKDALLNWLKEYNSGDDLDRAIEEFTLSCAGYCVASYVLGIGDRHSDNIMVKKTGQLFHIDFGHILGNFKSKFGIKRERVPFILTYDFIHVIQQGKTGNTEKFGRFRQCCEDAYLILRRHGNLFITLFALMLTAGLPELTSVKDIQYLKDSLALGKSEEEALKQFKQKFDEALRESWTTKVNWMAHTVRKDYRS

- activity at 18.7 pM ([1]; concentration 0.0187 nM): 118%
- Kinase Activity (%) PI3K gamma ([1]; concentration 3330 nM, 3.33 µM): 0% and 3%
- Kinase Activity (%) PI3K gamma ([1]; concentration 10000 nM, 10 µM): 3% and 0% and 8%
- activity at 6.09 pM ([1]; concentration […]): 110%
- Kinase Activity (%) PI3K alpha ([2]; concentration 0.00626 nM, 6.26 pM): 96% and 108% and 85% and 101%
- activity at 18.8 pM ([2]; concentration 0.0188 nM): 97%
- Kinase Activity (%) PI3K alpha ([2]; concentration 0.0188 nM, 18.8 pM): 110% and 96% and 100%
- activity at 56.4 pM ([2]; concentration 0.0564 nM): 104%
- Kinase Activity (%) PI3K alpha ([2]; concentration 0.0564 nM, 56.4 pM): 103% and 96% and 99%
- activity at 0.000495 µM ([2]; concentration 0.495 nM): 47%
- Kinase Activity (%) PI3K alpha [2, 6]: 55% and 56% and 58%
- activity at 0.00152 µM ([2]; concentration 1.52 nM): 29%
- Kinase Activity (%) PI3K alpha [2, 7]: 28% and 30% and 31%
- activity at 0.00457 µM ([2]; concentration 4.57 nM): 15%
- Kinase Activity (%) PI3K alpha [2, 8]: 11% and 9%
- Kinase Activity (%) PI3K alpha ([2]; concentration 41.2 nM, 0.0412 µM): 3% and 2% and 0%
- activity at 0.000495 µM ([3]; concentration 0.495 nM): 96%
- Kinase Activity (%) mTOR [3, 6]: 89% and 90% and 92%
- activity at 0.00152 µM ([3]; concentration 1.52 nM): 78%
- Kinase Activity (%) mTOR [3, 7]: 80% and 77% and 74% and 83% and 76%
- activity at 0.00457 µM ([3]; concentration 4.57 nM): 63%
- Kinase Activity (%) mTOR [3, 8]: 61% and 56% and 52% and 57% and 58%
- Kinase Activity (%) mTOR ([3]; concentration 123 nM, 0.123 µM): 7% and 3% and 2% and 5% and 0%
- Kinase Activity (%) mTOR ([3]; concentration 1110 nM, 1.11 µM): 5% and 3% and 2% and -4% and -2% and -1%
- Kinase Activity (%) mTOR ([3]; concentration 3330 nM, 3.33 µM): 3% and 2% and 1% and -3% and -2% and -4%
- Kinase Activity (%) mTOR ([3]; concentration 10000 nM, 10 µM): 6% and 3% and 0% and -1% and 1% and -2%
- Kinase Activity (%) PI3K beta ([4]; concentration 0.0187 nM, 18.7 pM): 86% and 99% and 98%
- Kinase Activity (%) PI3K beta ([4]; concentration 0.0562 nM, 56.2 pM): 94% and 122% and 99% and 98%
- Kinase Activity (%) PI3K beta ([4]; concentration 123 nM, 0.123 µM): 6% and 7% and 8% and 13%
- activity at […] ([4]; concentration 370 nM): 4%
- Kinase Activity (%) PI3K beta ([4]; concentration 370 nM, […]): 3%
- activity at 1.11 µM ([4]; concentration 1110 nM): 5%
- Kinase Activity (%) PI3K beta ([4]; concentration 1110 nM, 1.11 µM): 3%
- Kinase Activity (%) PI3K beta ([4]; concentration 3330 nM, 3.33 µM): 7% and 6% and 3%
- Kinase Activity (%) PI3K beta ([4]; concentration 10000 nM, 10 µM): 7% and 0% and 3%
- activity at 6.09 pM ([4]; concentration […]): 108%
- concentration at 0.167 h ([5]; female, CD-1, mouse, iv, 15 mg kg^−1, Concentration (ng/mL), single i.v. LP-182 15 mg kg^−1, 0.167 h): 15.5 ng/mL
- concentration at 0.5 h ([5]; female, CD-1, mouse, iv, 15 mg kg^−1, Concentration (ng/mL), single i.v. LP-182 15 mg kg^−1, 0.5 h): 7.17 ng/mL
- concentration at 1 h ([5]; female, CD-1, mouse, iv, 15 mg kg^−1, Concentration (ng/mL), single i.v. LP-182 15 mg kg^−1, 1 h): 6.53 ng/mL
- concentration at 0.5 h ([5]; female, CD-1, mouse, po, 400 mg kg^−1, Concentration (ng/mL), single p.o. LP-182 400 mg kg^−1, 0.5 h): 9.62 ng/mL
- concentration at 16 h ([5]; female, CD-1, mouse, po, 400 mg kg^−1, Concentration (ng/mL), single p.o. LP-182 400 mg kg^−1, 16 h): 19 ng/mL
- Concentration ([5]; single i.v. LP-182 15 mg kg^−1, 0.167 h): 14.8 ng/mL and 14.5 ng/mL
- Concentration ([5]; single i.v. LP-182 15 mg kg^−1, 0.5 h): 7.97 ng/mL and 7.89 ng/mL
- Concentration ([5]; single i.v. LP-182 15 mg kg^−1, 1 h): 5.65 ng/mL and 6.42 ng/mL
- Concentration ([5]; single i.v. LP-182 15 mg kg^−1, 2 h): 2.97 ng/mL and 2.53 ng/mL and 1.08 ng/mL
- Concentration ([5]; single p.o. LP-182 400 mg kg^−1, 0.167 h): 7.25 ng/mL and 15.1 ng/mL and 1.83 ng/mL
- Concentration ([5]; single p.o. LP-182 400 mg kg^−1, 0.5 h): 13.1 ng/mL and 15 ng/mL
- Concentration ([5]; single p.o. LP-182 400 mg kg^−1, 1 h): 29.3 ng/mL and 56.7 ng/mL and 12.7 ng/mL
- Concentration ([5]; single p.o. LP-182 400 mg kg^−1, 2 h): 12.6 ng/mL and 14.5 ng/mL and 5.44 ng/mL
- Concentration ([5]; single p.o. LP-182 400 mg kg^−1, 4 h): 23.5 ng/mL and 11.5 ng/mL and 14 ng/mL
- Concentration ([5]; single p.o. LP-182 400 mg kg^−1, 7 h): 27.3 ng/mL and 11.6 ng/mL and 31.5 ng/mL
- Concentration ([5]; single p.o. LP-182 400 mg kg^−1, 16 h): 12.8 ng/mL and 13.1 ng/mL
- Concentration ([5]; single p.o. LP-182 400 mg kg^−1, 24 h): 24.5 ng/mL and 9.81 ng/mL and 21.4 ng/mL
SMILES: O=S(=O)(Nc1cc(-c2ccc3ncc(N4CCNCC4)nc3c2)cnc1Cl)c1ccc(F)cc1 [LP-527, N-(2-chloro-5-(3-(piperazin-1-yl)quinoxalin-6-yl)pyridin-3-yl)-4-fluorobenzenesulfonamide]
- Kinase Activity (%) PI3K beta [4, 6]: 87% and 91% and 92% and 97% and 104% and 103% and 82% and 98%
